{"source": "patent US11759455B2", "about": "“Substituted 1H-imidazo[4,5-b]pyridin-2(3H)-ones and their use as GLUN2B receptor modulators” (JANSSEN PHARMACEUTICA NV, priority 2016, dated 2023)", "data": [{"target": "T1, human GluN1/GluN2B NMDA receptors (Homo sapiens, UniProt Q05586+Q13224)", "T1 construct": "expressed in transfected cells", "T1 sequence (Q13224 27-1484, other chains not shown)": "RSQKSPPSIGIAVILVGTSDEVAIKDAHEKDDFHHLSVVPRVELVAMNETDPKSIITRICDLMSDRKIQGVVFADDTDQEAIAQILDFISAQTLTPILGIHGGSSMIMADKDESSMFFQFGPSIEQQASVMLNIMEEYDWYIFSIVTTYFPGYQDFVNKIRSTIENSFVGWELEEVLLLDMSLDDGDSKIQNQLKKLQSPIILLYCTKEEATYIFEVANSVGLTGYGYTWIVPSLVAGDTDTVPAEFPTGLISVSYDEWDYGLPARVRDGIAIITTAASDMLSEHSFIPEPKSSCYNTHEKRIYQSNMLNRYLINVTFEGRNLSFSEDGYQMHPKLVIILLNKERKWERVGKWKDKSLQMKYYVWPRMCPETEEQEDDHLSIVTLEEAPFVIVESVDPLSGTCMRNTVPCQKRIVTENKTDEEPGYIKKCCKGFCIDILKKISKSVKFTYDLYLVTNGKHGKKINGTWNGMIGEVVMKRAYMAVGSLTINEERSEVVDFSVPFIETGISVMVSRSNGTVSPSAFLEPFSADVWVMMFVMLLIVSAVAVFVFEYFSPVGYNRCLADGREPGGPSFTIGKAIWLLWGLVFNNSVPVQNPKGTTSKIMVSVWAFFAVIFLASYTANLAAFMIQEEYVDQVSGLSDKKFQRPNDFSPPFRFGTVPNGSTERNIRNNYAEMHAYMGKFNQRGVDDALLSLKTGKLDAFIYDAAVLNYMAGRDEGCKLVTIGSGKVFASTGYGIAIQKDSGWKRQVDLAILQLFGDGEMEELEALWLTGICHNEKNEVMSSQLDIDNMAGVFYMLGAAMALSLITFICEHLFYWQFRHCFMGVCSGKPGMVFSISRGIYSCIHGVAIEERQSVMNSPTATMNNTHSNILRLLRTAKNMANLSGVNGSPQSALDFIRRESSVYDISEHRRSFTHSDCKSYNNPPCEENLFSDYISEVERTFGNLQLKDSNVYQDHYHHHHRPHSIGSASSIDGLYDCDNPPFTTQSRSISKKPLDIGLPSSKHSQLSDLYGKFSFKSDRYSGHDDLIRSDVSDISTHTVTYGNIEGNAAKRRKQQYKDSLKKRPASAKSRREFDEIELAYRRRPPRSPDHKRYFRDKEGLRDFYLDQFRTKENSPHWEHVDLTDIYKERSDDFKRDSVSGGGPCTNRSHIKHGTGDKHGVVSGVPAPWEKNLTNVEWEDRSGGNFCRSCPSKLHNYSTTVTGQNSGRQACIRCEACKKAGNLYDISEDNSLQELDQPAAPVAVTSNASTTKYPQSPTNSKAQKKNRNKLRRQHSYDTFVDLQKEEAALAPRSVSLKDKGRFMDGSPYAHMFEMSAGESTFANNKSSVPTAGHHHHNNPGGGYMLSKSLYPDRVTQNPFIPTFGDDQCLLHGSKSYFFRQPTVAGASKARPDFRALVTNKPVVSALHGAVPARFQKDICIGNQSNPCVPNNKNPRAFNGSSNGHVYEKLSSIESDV", "assay": "Cell-based calcium flux (FLIPR) assay on cloned human NR1/NR2B ion channels expressed in mammalian cells (standard and HTS buffer variants);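 further: stable Tet-On inducible cell line, Ca2+ influx triggered by glutamate at about EC40 plus 10 µM glycine, fluorescent dye read-out over 5 min, normalized to control wells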", "details": "standard assay buffer (0.5 mM MgCl2 dye loading; 137 mM NaCl, 4 mM KCl assay buffer), human GluN1/GluN2B cells, read-out: NR2B IC50 (μM) standard assay", "units": {"IC50": "µM"}, "values": [{"smiles": "Cn1c(=O)n(CC(=O)N2CC(F)C2)c2cc(-c3csc(C(F)(F)F)c3)cnc21", "note": "[Example 102, 1-[2-(3-Fluoroazetidin-1-yl)-2-oxo-ethyl]-3-methyl-6-[5-(trifluoromethyl)-3-thienyl]imidazo[4,5-b]pyridin-2-one]", "IC50": 0.018}, {"smiles": "[2H]c1c(-c2ccc(C(F)(F)F)s2)cnc2c1n(CC(=O)N1CCC1)c(=O)n2C", "note": "[Example 120, 1-(2-(Azetidin-1-yl)-2-oxoethyl)-3-methyl-6-(5-(trifluoromethyl)thiophen-2-yl)-1,3-dihydro-2H-imidazo[4,5-b]pyridin-2-one-7-D]", "IC50": 0.01}, {"smiles": "[2H]C([2H])([2H])OCc1ccc(-c2cnc3c(c2)n(CC(=O)N(C)C)c(=O)n3C)s1", "note": "[Example 121, N,N-Dimethyl-2-[3-methyl-2-oxo-6-[5-(trideuteriomethoxymethyl)-2-thienyl]imidazo[4,5-b]pyridin-1-yl]acetamide]", "IC50": 2.96}, {"smiles": "[2H]C([2H])([2H])OCc1ccc(-c2cnc3c(c2)n(CC(=O)N2CCC2)c(=O)n3C)s1", "note": "[Example 122, 1-[2-(Azetidin-1-yl)-2-oxo-ethyl]-3-methyl-6-[5-(trideuteriomethoxymethyl)-2-thienyl]imidazo[4,5-b]pyridin-2-one]", "IC50": 1.22}, {"smiles": "[2H]C([2H])([2H])OCc1ccc(-c2cnc3c(c2)n(CC(=O)N2CC(F)C2)c(=O)n3C)s1", "note": "[Example 123, 1-[2-(3-Fluoroazetidin-1-yl)-2-oxo-ethyl]-3-methyl-6-[5-(trideuteriomethoxymethyl)-2-thienyl]imidazo[4,5-b]pyridin-2-one]", "IC50": 1.82}]}, {"target": "T1, human GluN1/GluN2B NMDA receptors", "assay": "Cell-based calcium flux (FLIPR) assay on cloned human NR1/NR2B ion channels expressed in mammalian cells (standard and HTS buffer variants)", "details": "standard assay buffer (0.5 mM MgCl2 in dye loading buffer; 137 mM NaCl, 4 mM KCl in assay buffer), human GluN1/GluN2B, read-out: NR2B IC50 (μM) standard assay", "units": {"IC50": "µM"}, "values": [{"smiles": "Cc1cc(-c2cnc3c(c2)n(CC(=O)N2CCC2)c(=O)n3C)ccc1F", "note": "[Example 410, 1-[2-(Azetidin-1-yl)-2-oxo-ethyl]-6-(4-fluoro-3-methyl-phenyl)-3-methyl-imidazo[4,5-b]pyridin-2-one]", "IC50": 0.013}, {"smiles": "COc1ccc(-c2cnc3[nH]c(=O)n(CC(=O)C(C)(C)C)c3c2)cc1", "note": "[Example 601, 1-(3,3-Dimethyl-2-oxo-butyl)-6-(4-methoxyphenyl)-3H-imidazo[4,5-b]pyridin-2-one]", "IC50": 1.63}, {"smiles": "COc1ccc(-c2cnc3[nH]c(=O)n(CC(=O)C(C)(C)C)c3c2)cc1C", "note": "[Example 603, 1-(3,3-Dimethyl-2-oxo-butyl)-6-(4-methoxy-3-methyl-phenyl)-3H-imidazo[4,5-b]pyridin-2-one]", "IC50": 1.29}, {"smiles": "COc1ccc(-c2cnc3[nH]c(=O)n(CC(C)C)c3c2)cc1", "note": "[Example 604, 1-Isobutyl-6-(4-methoxyphenyl)-3H-imidazo[4,5-b]pyridin-2-one]", "IC50": 1.82}, {"smiles": "COc1ccc(-c2cnc3[nH]c(=O)n(Cc4ccccc4C#N)c3c2)cc1C", "note": "[Example 608, 2-[[6-(4-Methoxy-3-methyl-phenyl)-2-oxo-3H-imidazo[4,5-b]pyridin-1-yl]methyl]benzonitrile]", "IC50": 1.02}, {"smiles": "COc1ccc(-c2cnc3[nH]c(=O)n(CC(=O)C(C)(C)C)c3c2)cc1F", "note": "[Example 609, 1-(3,3-Dimethyl-2-oxo-butyl)-6-(3-fluoro-4-methoxy-phenyl)-3H-imidazo[4,5-b]pyridin-2-one]", "IC50": 0.263}]}]}
